Starred links: 1 amine or outer side, 2 acyl side, 3 side chain; linkers in the order of their positions; H or OH if unused. Positions of bridges follow the written chain, without caps; N, C: chain ends. Non-standard residues stand in square brackets, D forms with d. Residues, ends and D or L forms follow the SMILES beside them. Phe(3-(4R-CO-2-thiazolinyl)) = O=C([C@H](Cc1cccc(C2=N[C@H](C(=O)[*:3])CS2)c1)N[*:1])[*:2]; dCha = N[C@H](CC1CCCCC1)C(=O)O; Nle = CCCC[C@H](N)C(=O)O
experiment: Membrane permeability of synthesized cyclic peptides by PAMPA (Measurement Method A: 1 μmol/L; Method B: 10 μmol/L); type: in vitro ADME; conditions: Measurement method A, 25° C., 4 hours
Procedure: Evaluation of membrane permeability of synthesized cyclic peptide by PAMPA method In order to compare and examine the membrane permeability of the synthesized cyclic peptide, parallel artificial membrane permeability assay (PAMPA) was carried out.
An artificial phospholipid membrane was produced by adding 5 μL of a phospholipid organic solvent solution consisting of L-α-phosphatidylcholine (Avanti Polar Lipids, Inc., Cat. 840051P, 1.67%), 1,2-dioleoyl-sn-glycero-3-phospho-L-serine (Avanti Polar Lipids, Inc., Cat. 840035P, 0.33%), and n-dodecane special grade (Wako Pure Chemical Industries, Ltd., 047-21612)/1-octanol reagent special grade (Kanto Chemical Co., Inc., Cat. 31013-08)=10:1 to Filter Plate (Merck Millipore Corporation, Cat. MAIPN4550).
475 μL of 50 mmol/L potassium phosphate buffer (KPB, pH 7.4 or pH 6.5) was added to 25 μL of a DMSO solution containing the compound at a concentration of 20 μmol/L, so that the compound was diluted to a final concentration of 1 μmol/L. 300 μL of the compound solution was added to the lower side (donor side) of PAMPA 96-well plate (Filter Plate (Merck Millipore Corporation, Cat. MAIPN4550)) with an artificial phospholipid membrane being interposed therebetween. 200 μL of 5% DMSO KPB (pH 7.4) was added to the upper side (acceptor side) with the artificial phospholipid membrane being interposed therebetween. A permeation test through an artificial phospholipid membrane was carried out at 25° C. for 4 hours. The compound concentration in the solution in the donor plate and the acceptor plate was measured by LC/MS/MS, and the membrane permeation rate (Pe) of the compound was calculated from the following formula, assuming that C0 is an initial compound concentration in donor solution, t is a test time, A is a membrane filter area=0.3 cm^2, VD is a donor solution amount=300 μL, VA is an acceptor solution amount=200 μL, and CD(t) is a compound concentration in donor solution at time t, CA(t) is a compound concentration in acceptor solution at time t, and Cequilibrium=[CD(t)*VD+CA(t)*VA]/(VD+VA).
475 μL of 50 mmol/L potassium phosphate buffer (KPB, pH 7.4 or pH 6.5) was added to 25 μL of a DMSO solution containing the compound at a concentration of […], so that the compound was diluted to a final concentration of 10 μmol/L. The compound solution was added 300 μL each to the lower side (donor side) of an artificial phospholipid membrane of PAMPA 96-well plate (Filter Plate (Merck Millipore Corporation, Cat. MAIPN4550)). 200 μL of 5% DMSO KPB (pH 7.4) was added to the upper side (acceptor side) with the artificial phospholipid membrane being interposed therebetween. A permeation test through an artificial phospholipid membrane was carried out at 25° C. for 4 hours. The compound concentration in the solution in the donor plate and the acceptor plate was measured by LC/MS/MS, and the membrane permeation rate (Pe) of the compound was calculated from the following formula, assuming that Co is an initial compound concentration in donor solution, t is a test time, A is a membrane filter area=0.3 cm^2, VD is a donor solution amount=300 μL, VA is an acceptor solution amount=200 μL, and CD(t) is a compound concentration in donor solution at time t, CA(t) is a compound concentration in acceptor solution at time t, and Cequilibrium=[CD(t)*VD+CA(t)*VA]/(VD+VA).
The membrane permeability (Pe(10^−6 cm/s)) obtained by this method is described in the following table.
(§1) Evaluation standards are as follows.

Structure (SMILES) | Pe(10^−6 cm/sec)
Cn1ccc2cc3c(nc21)C1=N[C@@H](CS1)C(=O)N1CCC[C@H]1C(=O)N[C@H](CC1CCCCC1)C(=O)N[C@@H](Cc1c[nH]c2ccccc12)C(=O)N[C@@H](CCCNC(=N)N)C(=O)N[C@H](C(N)=O)C3 [a-1-4] | +++ (0.5<Pe (10^−6 cm/s))
CCCC[C@@H]1NC(=O)[C@H](CCCCN)NC(=O)[C@H](CC(C)C)NC(=O)[C@H](CC(C)C)NC(=O)[C@H](C)NC(=O)CSC[C@@H](C(N)=O)NC(=O)[C@H](Cc2ccccc2)NC(=O)[C@H](C)NC(=O)[C@H](C)NC(=O)[C@@H]2CCCN2C1=O [7-5] ({CH2CO}-ALLK[Nle]PAAFC-NH2; thioether N-10) | Below the limit
CC(C)C[C@@H]1NC(=O)[C@@H](C(C)C)NC(=O)[C@H](C)NC(=O)CSC[C@@H](C(N)=O)NC(=O)[C@@H](CCC(=O)O)NC(=O)[C@@H](Cc2c[nH]c3ccccc23)NC1=O [7-4] ({CH2CO}-A[dV]L[dW][dE]C-NH2; thioether N-6) | + (0.01<Pe (10^−6 cm/s)≤0.2)
C[C@@H]1NC(=O)Cn2cc(nn2)C[C@@H](C(N)=O)NC(=O)[C@H]([C@@H](C)O)NC(=O)[C@H](CCCCN)NC(=O)[C@@H](Cc2c[nH]c3ccccc23)NC(=O)[C@H](Cc2ccccc2)NC1=O [10-4] | − (0.01≤Pe (10^−6 cm/s))
C[C@@H]1NC(=O)Cn2cc(nn2)C[C@@H](C(N)=O)NC(=O)[C@H](CCCNC(=N)N)NC(=O)[C@H](Cc2c[nH]c3ccccc23)NC(=O)[C@@H](CC2CCCCC2)NC(=O)[C@@H]2CCCN2C1=O [10-1] | + (0.01<Pe (10^−6 cm/s)≤0.2)
N=C(N)NCCC[C@@H]1NC(=O)[C@H](Cc2c[nH]c3ccccc23)NC(=O)[C@@H](CC2CCCCC2)NC(=O)[C@@H]2CCCN2C(=O)[C@@H]2CSC(=N2)c2ccc(cn2)OCCOCCOCCOCCOc2ccc(cc2)C[C@@H](C(N)=O)NC1=O [a-1-8] | +++ (0.5<Pe (10^−6 cm/s))
CC(C)C[C@@H]1NC(=O)[C@@H](C(C)C)NC(=O)[C@@H]2CSC(=N2)c2cccc(c2)C[C@@H](C(N)=O)NC(=O)[C@@H](CCC(=O)O)NC(=O)[C@@H](Cc2c[nH]c3ccccc23)NC1=O [5-1] ([dV]L[dW][dE][Phe(3-(4R-CO-2-thiazolinyl))]-NH2; lactam N-5) | +++ (0.5<Pe (10^−6 cm/s))
CC(C)C[C@@H]1NC(=O)[C@@H]2CSC(=N2)c2cccc(c2)C[C@@H](C(=O)N[C@@H](C)C(=O)N[C@@H](CC(C)C)C(=O)N[C@@H](Cc2ccccc2)C(=O)N[C@@H](CC(C)C)C(=O)N[C@@H](C)C(N)=O)NC(=O)[C@@H]2CCCN2C(=O)[C@H](CCCCN)NC1=O [a-3-2] (LKP[Phe(3-(4R-CO-2-thiazolinyl))]ALFLA-NH2; lactam N-4) | ++ (0.2<Pe (10^−6 cm/s)≤0.5)
N=C(N)NCCC[C@@H]1NC(=O)[C@H](Cc2c[nH]c3ccccc23)NC(=O)[C@@H](CC2CCCCC2)NC(=O)[C@@H]2CCCN2C(=O)[C@@H]2CSC(=N2)c2ccc(cn2)C[C@@H](C(N)=O)NC1=O [3-1] | +++ (0.5<Pe (10^−6 cm/s))
Cn1nc2c3cc(ccc31)C[C@@H](C(N)=O)NC(=O)[C@H](CCCNC(=N)N)NC(=O)[C@H](Cc1c[nH]c3ccccc13)NC(=O)[C@@H](CC1CCCCC1)NC(=O)[C@@H]1CCCN1C(=O)[C@@H]1CSC2=N1 [a-1-3] | +++ (0.5<Pe (10^−6 cm/s))
N=C(N)NCCC[C@@H]1NC(=O)[C@H](Cc2c[nH]c3ccccc23)NC(=O)[C@@H](CC2CCCCC2)NC(=O)[C@@H]2CCCN2C(=O)[C@@H]2CSC(=N2)C[C@@H](C(N)=O)NC1=O [3-5] | ++ (0.2<Pe (10^−6 cm/s)≤0.5)
C[C@@H]1NC(=O)CC[C@@H](C(N)=O)NC(=O)[C@@H](Cc2ccccc2)NC(=O)CNC(=O)CNC(=O)[C@@H](Cc2ccc(O)cc2)NC1=O [8-2] (A[dY]GG[dF]E-NH2; lactam N-6) | + (0.01<Pe (10^−6 cm/s)≤0.2)
C[C@@H](O)[C@@H]1NC(=O)[C@H](CCCCN)NC(=O)[C@@H](Cc2c[nH]c3ccccc23)NC(=O)[C@H](Cc2ccccc2)NC(=O)[C@@H]2CSC(=N2)c2cc(cs2)C[C@@H](C(N)=O)NC1=O [4-6] | + (0.01<Pe (10^−6 cm/s)≤0.2)
N=C(N)NCCC[C@@H]1NC(=O)[C@H](Cc2c[nH]c3ccccc23)NC(=O)[C@@H](CC2CCCCC2)NC(=O)[C@@H]2CCCN2C(=O)[C@@H]2CSC(=N2)c2sccc2C[C@@H](C(N)=O)NC1=O [2-17] | +++ (0.5<Pe (10^−6 cm/s))
C[C@@H]1NC(=O)CSC[C@@H](C(N)=O)NC(=O)[C@@H](Cc2ccccc2)NC(=O)CNC(=O)CNC(=O)[C@@H](Cc2ccc(O)cc2)NC1=O [7-2] ({CH2CO}-A[dY]GG[dF]C-NH2; thioether N-6) | + (0.01<Pe (10^−6 cm/s)≤0.2)
N=C(N)NCCC[C@@H]1NC(=O)[C@H](Cc2c[nH]c3ccccc23)NC(=O)[C@@H](CC2CCCCC2)NC(=O)[C@@H]2CCCN2C(=O)[C@@H]2CSC(=N2)c2cn3c(cccc3n2)C[C@@H](C(N)=O)NC1=O [a-1-12] | +++ (0.5<Pe (10^−6 cm/s))
C[C@@H]1NC(=O)CC[C@@H](C(N)=O)NC(=O)[C@H](CCCNC(=N)N)NC(=O)[C@H](Cc2c[nH]c3ccccc23)NC(=O)[C@@H](CC2CCCCC2)NC(=O)[C@@H]2CCCN2C1=O [8-1] (AP[dCha]WRE-NH2; lactam N-6) | + (0.01<Pe (10^−6 cm/s)≤0.2)

same assay, conditions: Measurement method B (10 μmol/L), 25° C., 4 hours

Structure (SMILES) | Pe(10^−6 cm/sec)
CC(C)C[C@@H]1NC(=O)[C@@H]2CSC(=N2)c2cccc(c2)C[C@@H](C(N)=O)NC(=O)[C@H](CC(C)C)NC(=O)[C@H](C)NC(=O)[C@H](Cc2ccccc2)NC(=O)[C@H](C)NC(=O)[C@@H]2CCCN2C(=O)[C@H](C)NC(=O)[C@H](CC(C)C)NC(=O)[C@H](CC(C)C)NC(=O)[C@@H]2CCCN2C(=O)[C@H](CC(C)C)NC(=O)[C@H](CCCNC(=N)N)NC(=O)[C@H](CC(C)C)NC1=O [a-3-1] (LLRLPLLAPAFAL[Phe(3-(4R-CO-2-thiazolinyl))]-NH2; lactam N-14) | +++ (0.5<Pe (10^−6 cm/s))

experiment: Metabolic stability of cyclic peptides in human liver microsomes (HLM residual rate); type: in vitro ADME; conditions: 1 μmol/L, human liver microsomes 0.5 mg protein/mL, 37° C., 20 minutes, NADPH and UDPGA
Procedure: Test of metabolic stability of cyclic peptide in human liver microsome
An experiment using human liver microsomes (HLMs) was carried out in order to compare and examine the metabolic stability of the synthesized cyclic peptides.
The compound with a final concentration of 1 μmol/L was incubated in human liver microsomes (BD Cat #452117) prepared to a final concentration of 0.5 mg protein/mL using 100 mmol/L phosphate buffer (pH 7.4) at 37° C. for 20 minutes in the presence of reduced nicotinamide adenine dinucleotide phosphate (NADPH) and uridine 5′-diphosphate-α-D-glucuronic acid (UDPGA). Deproteinization treatment with acetonitrile was carried out, the amount of unaltered substance remaining was quantified using LC/MS/MS, and the residual rate (%) in 20 minutes was calculated. The HLM residual rate (%) obtained by this method is described in the following table.
as §1

Structure (SMILES) | HLM residual rate
N=C(N)NCCC[C@@H]1NC(=O)[C@H](Cc2c[nH]c3ccccc23)NC(=O)[C@@H](CC2CCCCC2)NC(=O)[C@@H]2CCCN2C(=O)[C@@H]2CSC(=N2)c2nc(cs2)C[C@@H](C(N)=O)NC1=O [2-18] | ++ (40%<HLM residual rate (%)≤60%)
N=C(N)NCCC[C@@H]1NC(=O)[C@H](Cc2c[nH]c3ccccc23)NC(=O)[C@@H](CC2CCCCC2)NC(=O)[C@@H]2CCCN2C(=O)[C@@H]2CSC(=N2)c2n[nH]cc2C[C@@H](C(N)=O)NC1=O [2-20] | ++ (40%<HLM residual rate (%)≤60%)
N=C(N)NCCC[C@@H]1NC(=O)[C@H](Cc2c[nH]c3ccccc23)NC(=O)[C@@H](CC2CCCCC2)NC(=O)[C@@H]2CCCN2C(=O)[C@@H]2CSC(=N2)c2cnc(cn2)C[C@@H](C(N)=O)NC1=O [2-13] | +++ (60%<HLM residual rate (%))
N=C(N)NCCC[C@@H]1NC(=O)[C@H](Cc2c[nH]c3ccccc23)NC(=O)[C@@H](CC2CCCCC2)NC(=O)[C@@H]2CCCN2C(=O)[C@@H]2CSC(=N2)c2cncc(n2)C[C@@H](C(N)=O)NC1=O [2-14] | +++ (60%<HLM residual rate (%))
N=C(N)NCCC[C@@H]1NC(=O)[C@H](Cc2c[nH]c3ccccc23)NC(=O)[C@@H](CC2CCCCC2)NC(=O)[C@@H]2CCCN2C(=O)[C@@H]2CSC(=N2)c2ncccc2C[C@@H](C(N)=O)NC1=O [3-3] | +++ (60%<HLM residual rate (%))

From patent US11319347B2, “Peptide compound and method for producing same, composition for screening use, and method for selecting peptide compound” (FUJIFILM Corporation, priority 2017, dated 2022)
